The source of these data is patent US20220041616A1, “SPIRO COMPOUND AND MEDICAL USES THEREOF” (The National Institutes of Pharmaceutical R&D Co., Ltd., priority 2018, published 2022).

Where only a bound is given, the exact number is not on record here.

The first assay has as its system HepG2 cells. The experiment in a line: In vitro inhibition of fatty acid synthesis in HepG2 cells ([14C]-acetate incorporation). Conditions: 1 h compound, then 5 h [2-14C]-acetic acid. The format is cell-based, human. The protocol: Human liver tumor cells (HepG2 cells) with strong fatty acid synthesis ability were selected. The sample to be tested was added and incubated for 1 hour. Isotope-labeled [^14C]-sodium acetate was added to the cell culture medium and incubated for 5 hours. Then the cells were lysed, and the fatty acid components in the cell were extracted and separated. The relative content of the isotope integrated into the fatty acid was analyzed, so as to detect the inhibitory effect of the compound on fatty acid synthesis in HepG2 cells at different concentrations, and the IC50 value was calculated.
a. HepG2 cells were purchased from the American type culture collection (ATCC) resource bank. Cells were cultured in DMEM (GIBCO) containing 10% fetal bovine serum (GIBCO), penicillin (100 units/mL) and streptomycin (100 μg/mL) (GIBCO), and then incubated in a 37° C. incubator containing 5% carbon dioxide, and passaged once every 2 to 3 days.
b. On the first day, HepG2 cells were inoculated in a 24-well cell culture plate at 2×10^5 per well, and were incubated in a 37° C. incubator containing 5% carbon dioxide.
c. On the fourth day, the medium was changed to that containing the compound. The initial concentration of the compound was 3 μM or 0.3 μM, 3-fold dilution, 8 concentration gradients, and the final concentration of DMSO was 0.5% (v/v). The plate was incubated in a 37° C. incubator containing 5% carbon dioxide for 1 hour. GS-0976 was positive compound control; the reaction system with no compound but DMSO at a final concentration of 0.5% was negative control.
d. 1 μCi [2-^14C]-acetic acid was added to each well, and incubated for 5 hours in a 37° C. incubator containing 5% carbon dioxide.
e. The medium was first transferred to 15 mL centrifuge tubes. 0.5 mL of 0.1 M NaOH was added to each well of cells, and the lysed cell suspension was added to the corresponding 15 mL centrifuge tubes. 1 mL of ethanol and 0.17 mL of 50% KOH were added to each tube, and incubated in a water bath at 90° C. for 1 hour.
f. The sample were taken out and cooled to room temperature, then 5 mL petroleum ether was added to each tube, inverted several times, and centrifuged at 1000 rpm for 5 min. The upper organic phase was discarded and the aqueous phase was kept for fatty acid extraction. 1 mL of concentrated hydrochloric acid (its pH was ensured to be below 1) was added to each tube.
g. 5 mL petroleum ether was added to each tube, invert several times and centrifuged at 1000 rpm for 5 min. 4 mL petroleum ether layer was transferred to a new glass tube (18×180 mm). This step was repeated once.
h. The extracts were collected and placed in a water bath at 64° C. to evaporate for 30 min. Fatty acids were dissolved with 400 μL chloroform/n-hexane (1:1).
i. 50 μL sample were placed in iso-plate (Perkinelmer), 200 μL ULTIMA GOLD (Perkinelmer) was added to each well and incubated for 10 min at room temperature.
j. MicroBeta (Perkinelmer) was used to record the CPM scintillation signal.
The average value of the positive and negative control well and the standard deviation were calculated. IC50 was fitted by using XLFit 5.3.1.3 (2006-2011 ID Business Solutions Limited) with 4-Parameter Logistic Model or Sigmoidal Dose-Response Model:
Y=(Bottom+((Top−Bottom)/(1+((Log IC50/X)^Hillslope)))),
wherein X is the logarithm of the compound concentration, Y is CPM (count per minute); Top and Bottom are the Y values at the highest and lowest plateau of the curve; Hillslope is the Hill constant.
For the compound `COc1ccccc1C(CN1C(=O)C2(CCC(C(=O)O)C2)C(=O)c2c1sc(-c1ncco1)c2C)OC1CCOCC1` (mixture of isomers) [Compound 5y, 7′-(2-(2-methoxyphenyl)-2-((tetrahydro-2H-pyran-4-yl)oxy)ethyl)-3′-methyl-2′-(oxazol-2-yl)-4′,6′-dioxo-6′,7′-dihydro-4′H-spiro[cyclopentane-1,5′-thieno[2,3-b]pyridine]-3-carboxylic Acid], the IC50 is below 50 nM.

The assay is the same for the next values; noted with them: Homo sapiens, HepG2, 1 h compound, then 5 h [2-14C]-acetic acid.
As for `COc1ccccc1C(CN1C(=O)C2(CCC(C(=O)O)C2)C(=O)c2c1sc(-c1ncco1)c2C)OC1CCOCC1` (mixture of isomers) [Compound 5x, 7′-(2-(2-methoxyphenyl)-2-((tetrahydro-2H-pyran-4-yl)oxy)ethyl)-3′-methyl-2′-(oxazol-2-yl)-4′,6′-dioxo-6′,7′-dihydro-4′H-spiro[cyclopentane-1,5′-thieno[2,3-b]pyridine]-3-carboxylic Acid], the IC50 fell in the range of 50 to 500 nM.

`COc1ccccc1C(CN1C(=O)C2(CC(C(=O)O)C2)C(=O)c2c1sc(-c1ncco1)c2C)OC1CCOCC1` (mixture of isomers) [Compound 8, 7′-(2-(2-methoxyphenyl)-2-((tetrahydro-2H-pyran-4-yl)oxy)ethyl)-3′-methyl-2′-(oxazol-2-yl)-4′,6′-dioxo-6′,7′-dihydro-4′H-spiro[cyclobutane-1,5′-thieno[2,3-b]pyridine]-3-carboxylic Acid] yielded an IC50 below 50 nM.

`COc1ccccc1C(CN1C(=O)C2(CCC(C(=O)O)C2)C(=O)c2c1sc(-c1ncco1)c2C)OC1CCOCC1` (single isomer, unassigned) [Compound 5b, 7′-(2-(2-methoxyphenyl)-2-((tetrahydro-2H-pyran-4-yl)oxy)ethyl)-3′-methyl-2′-(oxazol-2-yl)-4′,6′-dioxo-6′,7′-dihydro-4′H-spiro[cyclopentane-1,5′-thieno[2,3-b]pyridine]-3-carboxylic Acid] showed an IC50 below 50 nM.

`COc1ccccc1C(CN1C(=O)C2(CC(C(=O)O)C2)C(=O)c2c1sc(-c1ncco1)c2C)OC1CCOCC1` (single isomer, unassigned) [Compound 8d, 7′-(2-(2-methoxyphenyl)-2-((tetrahydro-2H-pyran-4-yl)oxy)ethyl)-3′-methyl-2′-(oxazol-2-yl)-4′,6′-dioxo-6′,7′-dihydro-4′H-spiro[cyclobutane-1,5′-thieno[2,3-b]pyridine]-3-carboxylic Acid] had an IC50 below 50 nM.

With `COc1ccccc1[C@H](CN1c2sc(-c3ncco3)c(C)c2C(=O)[C@]2(C[C@H](C(=O)O)C2)C1=O)OC1CCOCC1` [Compound 8c, 7′-(2-(2-methoxyphenyl)-2-((tetrahydro-2H-pyran-4-yl)oxy)ethyl)-3′-methyl-2′-(oxazol-2-yl)-4′,6′-dioxo-6′,7′-dihydro-4′H-spiro[cyclobutane-1,5′-thieno[2,3-b]pyridine]-3-carboxylic Acid], the IC50 was below 50 nM.

By IC50 is commonly meant the concentration needed to halve the response being measured. Low readings indicate higher potency, high ones lower potency.
